Measurements reported in patent US20100062462A1, “IMMUNODEFICIENCY VIRUSES” (priority 2005, published 2010).

Key:
Jurkat T cells = assay: active caspase-3 and casp8p41 in Jurkat T cells treated with apoptotic stimuli, flow cytometry; type: cell-based; settings: for apoptosis, as determined by activation of caspase-3: 50 ng/mL TNF-α plus 5 μg/mL cycloheximide, 100 ng/mL SuperKillerTRAIL, 250 ng/mL anti-Fas CH-11, 2 μM Tat, 1 μg/mL gp120 for 8 hours, 10 μM Vpr-derived peptide 4 hours; for casp8p41 immunoreactivity: same stimuli, 10 μM campothecin for 8 hours
Method: It was determined whether casp8p41 is generated in response to other apoptotic stimuli. Jurkat T cells (10^6) were treated with 10 μM campothecin, 100 ng/mL SuperKillerTRAIL™ (Axxora), 250 ng/mL anti-Fas antibody CH-11 (Upstate Cell Signaling Solutions), 50 ng/mL TNF-α (R&D Systems) plus 5 μg/mL cycloheximide, 2 μM HIV Tat (NIH AIDS Research and Reference Reagent Program), 1 μg/mL of HIV gp120 (ImmunoDiagnostic), or vehicle controls for 8 hours at 37° C. For Vpr-induced apoptosis, Jurkat T cells were incubated with isotonic glucose-Hepes buffer (2.4% glucose, 13 mM Hepes, 68 mM NaCl, 1.3 mM KCl, 4 mM Na2HPO4, and 0.7 mM KH2PO4, pH 7.2) alone or containing 10 μM of Vpr-derived peptide (amino acids 61-75; NIH AIDS Research and Reference Reagent Program) for 4 hours at 37° C. After the incubation, cells were washed in PBS and incubated overnight at 37° C. After incubation for the indicated times, cells were fixed in 2% paraformaldehyde at 4° C. overnight. To determine the presence of casp8p41 on apoptotic cells, cells were permeabilized with PBS+0.1% NP-40 on ice for two minutes. Cells were then incubated with the mouse anti-casp8p41 antibody, followed by PE-labeled goat anti-mouse antibody (Becton Dickinson ImmunoCytochemistry) and FITC-labeled rabbit anti-active caspase-3 antibody.

HIV protease = target: T1, HIV protease (Human immunodeficiency virus type 1 group M subtype B, UniProt P04585); assay: casp8p41 production in Jurkat T cells transfected with HIV protease, flow cytometry; type: cell-based; settings: Jurkat T cells transfected with pEYFP-protease; 7 μM Nelfinavir or 20 μM Z-VAD-fmk added immediately following transfection; assessed the following morning
T1 construct: Jurkat T cells were transfected with 1 μg of pEYFP-protease per 10^7 cells; EYFP; expressed in transfected cells; host or cells: Jurkat T cells
Method: To determine whether casp8p41 is produced specifically as a consequence of HIV-PR activity, as opposed to being produced as a consequence of apoptotic processing of procaspase 8, casp8p41 expression was assessed following HIV-PR transfection in the presence or absence of HIV-PR inhibitor, Nelfinavir, or the pan-caspase inhibitor, z-VAD-fmk. Jurkat T cells were transfected with 1 μg of pEYFP-protease per 10^7 cells using a square wave electroporator (BTX) at 320 V for 10 msec. Immediately following transfection, 7 μM Nelfinavir or 20 μM Z-VAD-fmk was added. The following morning, casp8p41 was assessed by flow cytometry.

Molecule	apoptosis, as determined by activation of caspase-3 (Jurkat T cells)	casp8p41 immunoreactivity (Jurkat T cells)	casp8p41 production (HIV protease)
TRAIL	did indeed induce apoptosis	did not generate casp8p41 immunoreactivity	–
Z-VAD-fmk	–	–	did not alter casp8p41 production
CC[C@@]1(O)C(=O)OCc2c1cc1n(c2=O)Cc2cc3ccccc3nc2-1 [campothecin]	–	casp8p41 was not produced	–
TNF-α	did indeed induce apoptosis	did not generate casp8p41 immunoreactivity	–
Cc1c(O)cccc1C(=O)N[C@@H](CSc1ccccc1)[C@H](O)CN1C[C@H]2CCCC[C@H]2C[C@H]1C(=O)NC(C)(C)C [Nelfinavir]	–	–	abrogated casp8p41 production
